Assay results published in US10798941B2, “Microbiocidal oxadiazole derivatives” (SYNGENTA PARTICIPATIONS AG, priority 2016, dated 2020).

What was measured:
[1] = test system: Glomerella Lagenarium (Colletotrichum Lagenarium); experiment: Glomerella lagenarium (Colletotrichum lagenarium) liquid culture / cucumber / preventative (anthracnose); assay type: cell-based; conditions: Colletotrichum orbiculare; 20 ppm in the applied formulation; liquid culture in PDB, 24° C., inhibition of growth measured photometrically 3 to 4 days after application, vs untreated; read-out: disease control
Procedure, shortened: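 Conidia from cryogenic storage were mixed into potato dextrose broth. This was added to compound diluted from DMSO into 0.025% Tween20, tested at 20 ppm. Plates were incubated in the dark at 24 °C and 96% relative humidity, and growth was read photometrically after 2–7 days as % activity versus untreated check.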

Uromyces viciae-Fabae = experiment: Uromyces viciae-fabae / field bean / leaf disc preventative (faba-bean rust); assay type: in vivo; conditions: foliar, 288 h, 100 ppm in the applied formulation, field bean leaf discs, inoculated two hours after application, assessed 12 days after application, vs untreated, read-out: disease control
Description: Leaf disks or leaf segments of various plant species are cut from plants grown in a greenhouse. The cut leaf disks or segments are placed in multiwell plates (24-well format) onto water agar. The leaf disks are sprayed with a test solution before (preventative) or after (curative) inoculation. Compounds to be tested are prepared as DMSO solutions (max. 10 mg/ml) which are diluted to the appropriate concentration with 0.025% Tween20 just before spraying. The inoculated leaf disks or segments are incubated under defined conditions (temperature, relative humidity, light, etc.) according to the respective test system. A single evaluation of disease level is carried out 3 to 14 days after inoculation, depending on the pathosystem. Percent disease control relative to the untreated check leaf disks or segments is then calculated.
Field bean leaf discs are placed on water agar in multiwell plates (96-well format) and 10 μl of the formulated test compound diluted in acetone and a spreader pipetted onto the leaf disc. Two hours after application leaf discs are inoculated by spraying a spore suspension on the lower leaf surface. The leaf discs are incubated in a climate cabinet at 22° C. with 18 hour day and 70% relative humidity. The activity of a compound is assessed as percent disease control compared to untreated when an appropriate level of disease damage appears in untreated check leaf disks (12 days after application).
The following compounds at 100 ppm in the applied formulation give at least 80% disease control in this test when compared to untreated control leaf discs under the same conditions, which show extensive disease development.

[2] = test system: Puccinia recondita f. Sp. Tritici; experiment: Puccinia recondita f. sp. tritici / wheat / leaf disc preventative (brown rust); assay type: in vivo; conditions: foliar, 168 h, 200 ppm in the applied formulation, wheat leaf segments cv. Kanzler, preventative, inoculated 1 day after application, assessed 7 to 9 days after application, vs untreated, read-out: disease control
Procedure, shortened: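 Wheat cv. Kanzler leaf segments on agar were sprayed with formulated compound in water, then inoculated with spores 1 day later. Incubated at 19° C, 75% rh, 12 h light/12 h dark; percent disease control versus untreated scored 7 to 9 days after application.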

Phakopsora pachyrhizi = Phakopsora pachyrhizi / soybean / leaf disc preventative (Asian soybean rust); assay type: in vivo; conditions: foliar, 288 h, 200 ppm in the applied formulation, soybean leaf disks, inoculated one day after application, assessed 12 to 14 days after application, vs untreated, read-out: disease control
Procedure, shortened: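 Read-out is percent disease control relative to untreated check discs, assessed once untreated discs show adequate disease, 12 to 14 days after application. Compounds, tested at 200 ppm in the applied formulation, are sprayed onto soybean leaf discs one day before inoculation with a spore suspension.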

[3] = test system: Puccinia recondita f. Sp. Tritici; experiment: Puccinia recondita f. sp. tritici / wheat / leaf disc curative (brown rust); assay type: in vivo; conditions: foliar, 144 h, 200 ppm in the applied formulation, wheat leaf segments cv. Kanzler, applied 1 day after inoculation, assessed 6 to 8 days after application, vs untreated, read-out: disease control
Procedure, shortened: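 Spray application came one day after spore inoculation of Kanzler wheat leaf segments kept on agar. Conditions: 19° C, 75% relative humidity, dark before treatment and 12 h light/12 h dark after. Efficacy = % disease control compared with untreated, 6–8 days post-application.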

| melting point [°C] | SMILES | inhibition of growth at 20 ppm [1] [%] | pest or weed control at 100 ppm (Uromyces viciae-Fabae) [%] | pest or weed control at 200 ppm [2] [%] | pest or weed control at 200 ppm (Phakopsora pachyrhizi) [%] | pest or weed control at 200 ppm [3] [%] |
| --- | --- | --- | --- | --- | --- | --- |
| 200.6 to 204.2 | Cc1ccc(-c2cn(Cc3ccc(-c4noc(C(F)(F)F)n4)cc3)nn2)cc1 [Compound 1.14, 3-[4-[[4-(p-tolyl)triazol-1-yl]methyl]phenyl]-5-(trifluoromethyl)-1,2,4-oxadiazole] |  | ≥ 80 |  |  |  |
| 53 to 58 | FC(F)c1cc(C(F)F)n(Cc2ccc(-c3noc(C(F)(F)F)n3)cc2)n1 [Compound 1.17, 3-[4-[[3,5-bis(difluoromethyl)pyrazol-1-yl]methyl]phenyl]-5-(trifluoromethyl)-1,2,4-oxadiazole] | ≥ 80 | ≥ 80 |  | ≥ 80 |  |
| 185.3 to 189 | Fc1ccc(-c2cn(Cc3ccc(-c4noc(C(F)(F)F)n4)cc3)nn2)cc1 [Compound 1.13, 3-[4-[[4-(4-fluorophenyl)triazol-1-yl]methyl]phenyl]-5-(trifluoromethyl)-1,2,4-oxadiazole] |  | ≥ 80 |  |  |  |
| 159.8 to 163.1 | FC(F)(F)c1nc(-c2ccc(Cn3cc(-c4cccnc4)nn3)cc2)no1 [Compound 1.23, 3-[4-[[4-(3-pyridyl)triazol-1-yl]methyl]phenyl]-5-(trifluoromethyl)-1,2,4-oxadiazole] | ≥ 80 |  | ≥ 80 | ≥ 80 | ≥ 80 |
| 52 to 63 | Fc1cc(-c2noc(C(F)(F)F)n2)ccc1Cn1cncn1 [Compound 1.101, 3-[3-fluoro-4-(1,2,4-triazol-1-ylmethyl)phenyl]-5-(trifluoromethyl)-1,2,4-oxadiazole] | ≥ 80 |  | ≥ 80 | ≥ 80 | ≥ 80 |
| 91 to 96 | O=Cc1cnn(Cc2ccc(-c3noc(C(F)(F)F)n3)cc2)c1 [Compound 1.273, 1-[[4-[5-(trifluoromethyl)-1,2,4-oxadiazol-3-yl]phenyl]methyl]pyrazole-4-carbaldehyde] | ≥ 80 |  | ≥ 80 | ≥ 80 | ≥ 80 |
| 57 to 63 | C#CCON=Cc1cnn(Cc2ccc(-c3noc(C(F)(F)F)n3)cc2)c1 [Compound 1.290, N-prop-2-ynoxy-1-[1-[[4-[5-(trifluoromethyl)-1,2,4-oxadiazol-3-yl]phenyl]methyl]pyrazol-4-yl]methanimine] | ≥ 80 |  | ≥ 80 | ≥ 80 | ≥ 80 |
| 99.4 to 102 | Cc1nn(Cc2ccc(-c3noc(C(F)(F)F)n3)cc2)c(C)c1C [Compound 1.146, 5-(trifluoromethyl)-3-[4-[(3,4,5-trimethylpyrazol-1-yl)methyl]phenyl]-1,2,4-oxadiazole] | ≥ 80 |  | ≥ 80 | ≥ 80 | ≥ 80 |

The remaining lines, values behind:

| SMILES | melting point [°C] | inhibition of growth at 20 ppm [1] [%] | pest or weed control at 100 ppm (Uromyces viciae-Fabae) [%] | pest or weed control at 200 ppm [2] [%] | pest or weed control at 200 ppm (Phakopsora pachyrhizi) [%] | pest or weed control at 200 ppm [3] [%] |
| --- | --- | --- | --- | --- | --- | --- |
| CCn1ncc(-c2cn(Cc3ccc(-c4noc(C(F)(F)F)n4)cc3)nn2)c1C [Compound 1.2, 3-[4-[[4-(1-ethyl-5-methyl-pyrazol-4-yl)triazol-1-yl]methyl]phenyl]-5-(trifluoromethyl)-1,2,4-oxadiazole] | 138.3 to 140.1 | ≥ 80 | ≥ 80 | ≥ 80 | ≥ 80 | ≥ 80 |
| CC(C)(C)OC(=O)NCc1cn(Cc2ccc(-c3noc(C(F)(F)F)n3)cc2)nn1 [Compound 1.9, tert-butyl N-[[1-[[4-[5-(trifluoromethyl)-1,2,4-oxadiazol-3-yl]phenyl]methyl]triazol-4-yl]methyl]carbamate] | 134.7 to 136.9 | ≥ 80 | ≥ 80 | ≥ 80 | ≥ 80 | ≥ 80 |
| FC(F)(F)c1nc(-c2ccc(Cn3cc(-c4ccsc4)nn3)cc2)no1 [Compound 1.8, 3-[4-[[4-(3-thienyl)triazol-1-yl]methyl]phenyl]-5-(trifluoromethyl)-1,2,4-oxadiazole] | 160.2 to 163.9 | ≥ 80 | ≥ 80 | ≥ 80 |  | ≥ 80 |
| CCOCc1cn(Cc2ccc(-c3noc(C(F)(F)F)n3)cc2)nn1 [Compound 1.11, 3-[4-[[4-(ethoxymethyl)triazol-1-yl]methyl]phenyl]-5-(trifluoromethyl)-1,2,4-oxadiazole] | 115.7 to 117.6 |  | ≥ 80 | ≥ 80 | ≥ 80 | ≥ 80 |
| FC(F)(F)c1nc(-c2ccc(Cn3nncc3-c3ccccc3)cc2)no1 [Compound 1.3, 3-[4-[(5-phenyltriazol-1-yl)methyl]phenyl]-5-(trifluoromethyl)-1,2,4-oxadiazole] |  | ≥ 80 | ≥ 80 | ≥ 80 | ≥ 80 | ≥ 80 |
| CC(=O)OCc1cn(Cc2ccc(-c3noc(C(F)(F)F)n3)cc2)nn1 [Compound 1.7, [1-[[4-[5-(trifluoromethyl)-1,2,4-oxadiazol-3-yl]phenyl]methyl]triazol-4-yl]methyl acetate] | 157.4 to 160.4 | ≥ 80 | ≥ 80 | ≥ 80 | ≥ 80 |  |
| Cc1cc(C(F)(F)F)nn1Cc1ccc(-c2noc(C(F)(F)F)n2)cc1 [Compound 1.20, 3-[4-[[5-methyl-3-(trifluoromethyl)pyrazol-1-yl]methyl]phenyl]-5-(trifluoromethyl)-1,2,4-oxadiazole] |  | ≥ 80 | ≥ 80 |  | ≥ 80 |  |
| COc1ccc(-c2cn(Cc3ccc(-c4noc(C(F)(F)F)n4)cc3)nn2)cc1 [Compound 1.12, 3-[4-[[4-(4-methoxyphenyl)triazol-1-yl]methyl]phenyl]-5-(trifluoromethyl)-1,2,4-oxadiazole] | 187.7 to 196.2 |  | ≥ 80 | ≥ 80 |  |  |
| C[Si](C)(C)c1cn(Cc2ccc(-c3noc(C(F)(F)F)n3)cc2)nn1 [Compound 1.25, trimethyl-[1-[[4-[5-(trifluoromethyl)-1,2,4-oxadiazol-3-yl]phenyl]methyl]triazol-4-yl]silane] | 87.8 to 89.5 | ≥ 80 |  | ≥ 80 | ≥ 80 | ≥ 80 |
| FC(F)(F)c1nc(-c2ccc(Cn3cc(-c4ccccc4)nn3)cc2)no1 [Compound 1.4, 3-[4-[(4-phenyltriazol-1-yl)methyl]phenyl]-5-(trifluoromethyl)-1,2,4-oxadiazole] | 161.5 to 164.4 | ≥ 80 | ≥ 80 | ≥ 80 | ≥ 80 |  |
| CC1(C)CN=C(Cc2ccc(-c3noc(C(F)(F)F)n3)cc2)O1 [Compound 1.10, 3-[4-[(5,5-dimethyl-4H-oxazol-2-yl)methyl]phenyl]-5-(trifluoromethyl)-1,2,4-oxadiazole] |  | ≥ 80 | ≥ 80 | ≥ 80 | ≥ 80 | ≥ 80 |
